# Reference: US20250243176A1, “(S)-1-(1-ACRYLOYLPIPERIDIN-3-YL)-2-FLUORO-5,6,7,8,9,10-HEXAHYDROCYCLO HEPTA[B]INDOLE-4-CARBOXAMIDE, AND RELATED CRYSTALLINE FORMS, COMPOSITIONS, AND METHODS THEREOF” (GB005, Inc., priority 2021, published 2025)
# Entries after “also recorded” stand apart in the source; their conditions may differ.
# Key:
# 349 kinases = assay: Kinome scan, panel; format: biochemical; details: kinome scan against 349 kinases
# Excerpt: (S)-1-(1-acryloylpiperidin-3-yl)-2-fluoro-5,6,7,8,9,10-hexahydrocyclohepta[b]indole-4-carboxamide, hereinafter referred to as “Compound 1”, is an orally available, selective, potent inhibitor of Bruton's tyrosine kinase (BTK), thereby providing potential treatment options in BTK-driven diseases. The potency of Compound 1 for BTK inhibition is in the nM range in both cell-free enzymatic and whole blood functional assays.
# [1] = Further solubility testing in excipients, HPLC; format: physicochemical
# Procedure: Compound 1 (˜0.5 g) was added to each excipient until visually saturated. The mixtures were incubated on a temperature-controlled mixer with glass beads to facilitating mixing, for at least 48 hours at room temperature (liquid excipients) or 40° C. (semisolid excipients). The samples were then centrifuged using 0.45 μm PVDF filter to separate the liquid and solid portions. The amount of dissolved compound in the filtrate was quantified by HPLC. XRPD analysis of any solid powder confirmed there was no change in form. The solubility results are presented in Table 16 and show Compound 1 had high solubility (>30 mg/g) in most of the screened excipients.
# [2] = Stability testing of formulations and Compound 1 alone (impurities, HPLC); format: physicochemical; details: 40° C.
# Procedure: Both gels were prepared using Titanium Dioxide, Iron Oxide, Red and FD&C Blue #1 as colorants. One dried swatch of gel 004007 was added to the gel 1 samples and one dried swatch of 004013 was added to gel 2.
# The samples were stored in 6 mL amber glass vials at: room temperature, 40° C., 50° C. and 5° C. for up 8 weeks. Control samples (Compound 1 alone) were analyzed in parallel with the study samples and control peaks were subtracted from the total impurities.
# [3] = Phase 1 safety and tolerability; format: in vivo, human; details: healthy subjects, blinded safety data
# Procedure: The study investigates the administration of Compound 1 to healthy human subjects, to evaluate the safety, tolerability and PK of single and multiple-escalating doses. Additional objectives include assessing the effect of formulation on PK, the effect of food on PK, the effect of a CYP3A inhibitor on PK and the effect of Compound 1 on CYP3A activity. PK parameters including AUC, AUC, Cmax, and Tmax are determined. An additional exploratory objective evaluates pharmacodynamics, as the time-course of BTK inhibition. The study is conducted with up to 144 healthy male and female subjects, aged 18-55 years, with a body weight over 48 kg, BMI 18.5-30.0 kg/m^2, with no clinically significant abnormalities.
# Safety is assessed throughout the study and PK and PD are characterized using serial blood samples collected up to 48 hours post-dose for Compound 1 plasma concentrations, BTK target occupancy (TO) and target engagement (TE). Cerebrospinal fluid (CSF) samples are collected at 2 hours post-dose to characterize the relationship between Compound 1 plasma concentrations and CNS penetrance (CSF/Unbound plasma concentration). Compound 1 PK parameters (e.g., AUClast, AUCinf, Cmax, Tmax, t1/2) are estimated by standard noncompartmental methods. […]
# [4] = Phase 1 multiple ascending dose plasma pharmacokinetics; format: in vivo; details: both sexes, human, oral, MAD cohort, 15 mg once daily for 10 days, fed
structure (smiles),measurement,setting,value
"C=CC(=O)N1CCC[C@@H](c2c(F)cc(C(N)=O)c3[nH]c4c(c23)CCCCC4)C1 [Compound 1, (S)-1-(1-acryloylpiperidin-3-yl)-2-fluoro-5,6,7,8,9,10-hexahydrocyclohepta[b]indole-4-carboxamide]",kinase selectivity,349 kinases,high kinase selectivity
same,Solubility,"[1]; Capryol PGMC, at least 48 hours, RT (liquid) or 40° C. (semisolid excipients)",38.1 mg/g
same,Solubility,"[1]; Gelucire 44/14, at least 48 hours, RT (liquid) or 40° C. (semisolid excipients)",48.9 mg/g
same,Solubility,"[1]; Gelucire 50/13, at least 48 hours, RT (liquid) or 40° C. (semisolid excipients)",45.9 mg/g
same,Solubility,"[1]; Kolliphor ELP, at least 48 hours, RT (liquid) or 40° C. (semisolid excipients)",36.5 mg/g
same,Solubility,"[1]; Kolliphor HS 15, at least 48 hours, RT (liquid) or 40° C. (semisolid excipients)",53.6 mg/g
same,Solubility,"[1]; Kolliphor RH40, at least 48 hours, RT (liquid) or 40° C. (semisolid excipients)",52.4 mg/g
same,Solubility,"[1]; Labrafil M 1944 CS, at least 48 hours, RT (liquid) or 40° C. (semisolid excipients)",10.7 mg/g
same,Solubility,"[1]; Labrafil M 2125 CS, at least 48 hours, RT (liquid) or 40° C. (semisolid excipients)",9.3 mg/g
same,Solubility,"[1]; Labrasol ALF, at least 48 hours, RT (liquid) or 40° C. (semisolid excipients)",68.1 mg/g
same,Solubility,"[1]; Lauroglycol FCC, at least 48 hours, RT (liquid) or 40° C. (semisolid excipients)",16.0 mg/g
same,Solubility,"[1]; Maisine CC, at least 48 hours, RT (liquid) or 40° C. (semisolid excipients)",16.7 mg/g
same,Solubility,"[1]; Masester E8120, at least 48 hours, RT (liquid) or 40° C. (semisolid excipients)",65.3 mg/g
same,Solubility,"[1]; Miglyol 812N, at least 48 hours, RT (liquid) or 40° C. (semisolid excipients)",2.9 mg/g
same,Solubility,"[1]; Oleic Acid, at least 48 hours, RT (liquid) or 40° C. (semisolid excipients)",21.0 mg/g
same,Solubility,"[1]; PEG 400, at least 48 hours, RT (liquid) or 40° C. (semisolid excipients)",77.3 mg/g
same,Solubility,"[1]; Peceol, at least 48 hours, RT (liquid) or 40° C. (semisolid excipients)",22.8 mg/g
same,Solubility,"[1]; Sesame Oil, at least 48 hours, RT (liquid) or 40° C. (semisolid excipients)",1.9 mg/g
same,Solubility,"[1]; Span 80, at least 48 hours, RT (liquid) or 40° C. (semisolid excipients)",12.2 mg/g
same,Solubility,"[1]; Transcutol HP, at least 48 hours, RT (liquid) or 40° C. (semisolid excipients)",118.6 mg/g
same,Solubility,"[1]; Tween 20, at least 48 hours, RT (liquid) or 40° C. (semisolid excipients)",48.6 mg/g
same,Solubility,"[1]; Tween 80, at least 48 hours, RT (liquid) or 40° C. (semisolid excipients)",49.0 mg/g
same,Solubility,"[1]; Vitamin E TPGS, at least 48 hours, RT (liquid) or 40° C. (semisolid excipients)",40.8 mg/g
same,Solubility,[1]; in most of the screened excipients,> 30 mg/g
same,"Compound 1 Related Impurities, RRT 0.73",[2]; T = 0,0.05 % adjusted area
same,"Compound 1 Related Impurities, RRT 0.79",[2]; T = 0,<LOQ
same,"Compound 1 Related Impurities, RRT 0.84",[2]; T = 0,0.07 % adjusted area
same,"Compound 1 Related Impurities, RRT 0.91",[2]; T = 0,0.10 % adjusted area
same,"Compound 1 Related Impurities, RRT 0.93",[2]; T = 0,0.06 % adjusted area
same,"Compound 1 Related Impurities, RRT 1.08",[2]; T = 0,0.07 % adjusted area
same,"Compound 1 Related Impurities, RRT 1.13",[2]; T = 0,0.36 % adjusted area
same,"Compound 1 Related Impurities, Total",[2]; T = 0,0.71 % adjusted area
same,"Compound 1 Related Impurities, RRT 0.73",[2]; T = 3 weeks,0.06 % adjusted area
same,"Compound 1 Related Impurities, RRT 0.79",[2]; T = 3 weeks,<LOQ
same,"Compound 1 Related Impurities, RRT 0.84",[2]; T = 3 weeks,0.05 % adjusted area
same,"Compound 1 Related Impurities, RRT 0.91",[2]; T = 3 weeks,0.07 % adjusted area
same,"Compound 1 Related Impurities, RRT 0.93",[2]; T = 3 weeks,0.07 % adjusted area
same,"Compound 1 Related Impurities, RRT 1.08",[2]; T = 3 weeks,0.07 % adjusted area
same,"Compound 1 Related Impurities, RRT 1.13",[2]; T = 3 weeks,0.30 % adjusted area
same,"Compound 1 Related Impurities, Total",[2]; T = 3 weeks,0.62 % adjusted area
same,"Compound 1 Related Impurities, RRT 0.47",[2]; T = 8 weeks,0.07 % adjusted area
same,"Compound 1 Related Impurities, RRT 0.73",[2]; T = 8 weeks,0.05 % adjusted area
same,"Compound 1 Related Impurities, RRT 0.79",[2]; T = 8 weeks,<LOQ
same,"Compound 1 Related Impurities, RRT 0.84",[2]; T = 8 weeks,0.06 % adjusted area
same,"Compound 1 Related Impurities, RRT 0.91",[2]; T = 8 weeks,0.08 % adjusted area
same,"Compound 1 Related Impurities, RRT 0.93",[2]; T = 8 weeks,0.05 % adjusted area
same,"Compound 1 Related Impurities, RRT 1.04",[2]; T = 8 weeks,0.12 % adjusted area
same,"Compound 1 Related Impurities, RRT 1.08",[2]; T = 8 weeks,0.06 % adjusted area
same,"Compound 1 Related Impurities, RRT 1.13",[2]; T = 8 weeks,0.32 % adjusted area
same,"Compound 1 Related Impurities, Total",[2]; T = 8 weeks,0.81 % adjusted area
same,safety and tolerability,"[3]; MAD cohort, 15 mg once daily for 10 days, fed",generally well tolerated with no serious adverse events or early study discontinuations reported
same,safety and tolerability,"[3]; SAD cohorts, single dose 5 to 200 mg, fed (moderate-fat meal)",generally well tolerated with no serious adverse events or early study discontinuations reported; also recorded: well tolerated across the dose range
same,Tmax,[4],1.5 h
